Columns and labels:
[1] = Potentiation of barbiturates, tranquillizers and ethanol; assay type: in vivo
Text: Additional pharmacological tests carried out with the preferred compound of the invention have shown that a non-sedative dose of this compound potentiates the hypnotic effect of the barbiturates as well as the sedative effect of tranquillizers such as meprobamate and diazepam.

[2] = spontaneous motoricity in the mouse; assay type: in vivo
Text: This test is described in U.S. Pat. No. 3,929,869.

[3] = Action with respect to tremorine (cholinolytic properties); assay type: in vivo, mouse
Protocol: This test has been described by EVERETT (Nature, 1956, 177-238)
When injected into mice, tremorine produces peripheral cholinergic effects i.e. weeping, hypersalivation, sedation, diarrhea as well as central cholinergic effects i.e. tremors, akinesia.
Batches of 10 mice separated into individual cages, were given the compound to be studied, by oral route, 30 minutes before administration of an intraperitoneal dose of 100 mg/kg of tremorine.
Note was then taken in each batch of the percentage of animals presenting the various symptoms of tremorine-induced poisoning since at such a dose of tremorine 100% of the control animals are poisoned.
The results hereunder are expressed in percentage of mice protected against tremor at the dose of the compound of the invention which was administered: […]

**Q.** With CCCC(CCC)(CCC)NC(N)=O [Compound A, 1-(1,1-Di-n-propyl-n-butyl)-urea] as the compound, how does the “potentiation of the effects of ethanol” value ([1]; in vivo) read?
**A.** Its value is “slight potentiation”.

**Q.** What about the “hypnotic effect of the barbiturates” value ([1]; non-sedative dose) of the same compound?
**A.** The value was “potentiates”.

**Q.** And the “sedative effect of tranquillizers such as meprobamate and diazepam” value ([1]; non-sedative dose)?
**A.** The value was “potentiates”.

**Q.** What about the “decrease in spontaneous motoricity” value ([2]; 175 mg/kg oral, mouse, 60 minutes, non-significant) of the same compound?
**A.** The value was 12%.

**Q.** What about the “Spontaneous motoricity (% of decrease)” value ([2]; comparison at 25%-protection dose of four plates test, 175 mg/kg) of the same compound?
**A.** Its value is 12%.

**Q.** And the “decrease in spontaneous motoricity at dose giving 80% reduction in combats” value ([2]; dose producing 80% decrease in the number of combats)?
**A.** Its value is “without any action on spontaneous motoricity”.

**Q.** What about the “% of protection against tremor” value ([3]; 200 mg/kg oral, mice, 30 min before 100 mg/kg i.p. tremorine) of the same compound?
**A.** Its value is 0%.

**Q.** And the “protection against central or peripheral cholinergic effects provoked by tremorine” value ([3]; 100, 300, 400 and 500 mg/kg oral)?
**A.** Its value is “did not protect any animal”.
